pIC50: −log10 of the molar value. In brackets after ≈: the same amount, converted by molar mass. Structures can show the parent of a compound that is named as a salt.
What was measured:
Type in all cases: functional, organism-based
[1] = system: Mycolicibacterium smegmatis; test: Antimycobacterial activity against Mycobacterium smegmatis grown in Luria-Bertani broth medium assessed as growth inhibition in mid-logarithmic phase by spectrophotometry
[2] = system: Mycolicibacterium smegmatis; test: Antimycobacterial activity against Mycobacterium smegmatis grown in carbon-limited broth medium assessed as growth inhibition in mid-logarithmic phase by spectrophotometry
[3] = system: Mycolicibacterium smegmatis; test: Antimycobacterial activity against Mycobacterium smegmatis grown in nitrogen -limited broth medium assessed as growth inhibition in mid-logarithmic phase by spectrophotometry
[4] = system: Mycolicibacterium smegmatis; test: Antimycobacterial activity against Mycobacterium smegmatis grown in Luria-Bertani broth medium assessed as growth inhibition in mid-logarithmic phase by GFP-based fluorescence assay
[5] = system: Mycolicibacterium smegmatis; test: Antimycobacterial activity against Mycobacterium smegmatis grown in carbon-limited broth medium assessed as growth inhibition in mid-logarithmic phase by GFP-based fluorescence assay
[6] = system: Mycolicibacterium smegmatis; test: Antimycobacterial activity against Mycobacterium smegmatis grown in nitrogen -limited broth medium assessed as growth inhibition in mid-logarithmic phase by GFP-based fluorescence assay

| Compound | pIC50 ([1]; Mycolicibacterium smegmatis) | MIC ([1]; Mycolicibacterium smegmatis) [µM] | pIC50 ([2]; Mycolicibacterium smegmatis) | MIC ([2]; Mycolicibacterium smegmatis) [µM] | pIC50 ([3]; Mycolicibacterium smegmatis) | MIC ([3]; Mycolicibacterium smegmatis) [µM] | pIC50 ([4]; Mycolicibacterium smegmatis) | MIC ([4]; Mycolicibacterium smegmatis) [µM] | pIC50 ([5]; Mycolicibacterium smegmatis) | MIC ([5]; Mycolicibacterium smegmatis) [µM] | pIC50 ([6]; Mycolicibacterium smegmatis) | MIC ([6]; Mycolicibacterium smegmatis) [µM] | further results |
| --- | --- | --- | --- | --- | --- | --- | --- | --- | --- | --- | --- | --- | --- |
| CN[C@H](CC(C)C)C(=O)N[C@H]1C(=O)N[C@@H](CC(N)=O)C(=O)N[C@H]2C(=O)N[C@H]3C(=O)N[C@H](C(=O)N[C@H](C(=O)O)c4cc(O)cc(O)c4-c4cc3ccc4O)[C@H](O)c3ccc(c(Cl)c3)Oc3cc2cc(c3O[C@@H]2O[C@H](CO)[C@@H](O)[C@H](O)[C@H]2O[C@H]2C[C@](C)(N)[C@H](O)[C@H](C)O2)Oc2ccc(cc2Cl)[C@H]1O [VANCOMYCIN] | 5.50 | 12.5 (≈ 18.1 µg/mL) | 4.78 | 25 (≈ 36.2 µg/mL) | 4.95 | 25 (≈ 36.2 µg/mL) | 5.50 | 12.5 (≈ 18.1 µg/mL) | 4.78 | 25 (≈ 36.2 µg/mL) | 4.95 | 25 (≈ 36.2 µg/mL) |  |
| CC1COc2c(N3CCN(C)CC3)c(F)cc3c(=O)c(C(=O)O)cn1c23 (stereo unspecified) [OFLOXACIN] | 5.69 | 3.12 (≈ 1.13 µg/mL) | 5.50 | 6.25 (≈ 2.26 µg/mL) | 5.76 | 6.25 (≈ 2.26 µg/mL) | 5.69 | 3.12 (≈ 1.13 µg/mL) | 5.50 | 6.25 (≈ 2.26 µg/mL) | 5.76 | 6.25 (≈ 2.26 µg/mL) |  |
| C[Se]C[C@H](N)C(=O)O [METHYLSELENOCYSTEINE] | < 4.30 | > 50 | 5.66 | 12.5 (≈ 2.28 µg/mL) | 6.22 | 12.5 (≈ 2.28 µg/mL) | < 4.30 | > 50 | 5.66 | 12.5 (≈ 2.28 µg/mL) | 6.22 | 12.5 (≈ 2.28 µg/mL) |  |
| Clc1ccccc1C(c1ccccc1)(c1ccccc1)n1ccnc1 [CLOTRIMAZOLE] | 5.18 | 12.5 (≈ 4.31 µg/mL) | 4.74 | 50 (≈ 17.2 µg/mL) | 4.91 | 50 (≈ 17.2 µg/mL) | 5.18 | 12.5 (≈ 4.31 µg/mL) | 4.74 | 50 (≈ 17.2 µg/mL) | 4.91 | 50 (≈ 17.2 µg/mL) |  |
| Cc1cc(N)c2ccccc2[n+]1CCCCCCCCCCCCCC[n+]1c(C)cc(N)c2ccccc21 | 5.40 | 6.25 | 5.56 | 6.25 | 5.76 | 3.12 | 5.40 | 6.25 | 5.56 | 6.25 | 5.76 | 3.12 |  |
| C[C@H]1c2cccc(O)c2C(=O)C2=C(O)[C@]3(O)C(=O)C(C(N)=O)=C(O)[C@@H](N(C)C)[C@@H]3[C@@H](O)[C@@H]21 [DOXYCYCLINE] | 6.12 | 1.56 (≈ 0.693 µg/mL) | 5.53 | 3.12 (≈ 1.39 µg/mL) | 5.71 | 3.12 (≈ 1.39 µg/mL) | 6.12 | 1.56 (≈ 0.693 µg/mL) | 5.53 | 3.12 (≈ 1.39 µg/mL) | 5.71 | 3.12 (≈ 1.39 µg/mL) |  |
| O=S1(=O)N(CCN2CC=C(c3c[nH]c4cc(F)ccc34)CC2)c2cccc3c2N1CCC3 | 4.60 | 50 (≈ 22.6 µg/mL) | 4.60 | 25 (≈ 11.3 µg/mL) | 4.65 | 50 (≈ 22.6 µg/mL) | 4.60 | 50 (≈ 22.6 µg/mL) | 4.60 | 25 (≈ 11.3 µg/mL) | 4.65 | 50 (≈ 22.6 µg/mL) |  |
| CN(C)C(CCCCC[N+](C)(C)CCCN1C(=O)c2cccc3cccc(c23)C1=O)CCCN1C(=O)c2cccc3cccc(c23)C1=O (stereo unspecified) | 5.09 | 50 | 4.93 | 50 | 5.22 | 25 | 5.09 | 50 | 4.93 | 50 | 5.22 | 25 |  |
| CNc1ccc2oc(C[C@H]3O[C@@]4(CC[C@H]3C)O[C@H]([C@H](C)C(=O)c3ccc[nH]3)[C@H](C)C[C@H]4C)nc2c1C(=O)O [CALCIMYCIN] | 5.98 | 3.12 (≈ 1.64 µg/mL) | 5.28 | 12.5 (≈ 6.55 µg/mL) | 5.46 | 12.5 (≈ 6.55 µg/mL) | 5.98 | 3.12 (≈ 1.64 µg/mL) | 5.28 | 12.5 (≈ 6.55 µg/mL) | 5.46 | 12.5 (≈ 6.55 µg/mL) |  |
| COc1ccccc1CNCCCCCCNCCCCCCCCNCCCCCCNCc1ccccc1OC [METHOCTRAMINE HYDROCHLORIDE] | 4.80 | 12.5 | 5.16 | 12.5 | 5.13 | 12.5 | 4.80 | 12.5 | 5.16 | 12.5 | 5.13 | 12.5 |  |
| c1ccc2c(c1)[I+]c1ccccc1-2 [DIPHENYLENEIODONIUM] | 5.17 | 6.25 | 5.07 | 3.12 | 5.79 | 3.12 | 5.17 | 6.25 | 5.07 | 3.12 | 5.79 | 3.12 |  |
| Clc1ccc(C(c2ccc(Cl)cc2)[n+]2ccn(CC(OCc3ccc(Cl)cc3Cl)c3ccc(Cl)cc3Cl)c2)cc1 (stereo unspecified) [CALMIDAZOLIUM CHLORIDE] | 4.88 | 12.5 | 4.86 | 50 | 5.15 | 12.5 | 4.88 | 12.5 | 4.86 | 50 | 5.15 | 12.5 |  |
| 4-[sequence] ACID |  |  |  |  |  |  |  |  |  |  |  |  | MIC [1]: 25 µM; MIC [2]: 6.25 µM; MIC [3]: 12.5 µM; MIC [4]: 25 µM; MIC [5]: 6.25 µM; MIC [6]: 12.5 µM |
| CN(C)[C@@H]1C(O)=C(C(N)=O)C(=O)[C@@]2(O)C(O)=C3C(=O)c4c(O)ccc(Cl)c4[C@@H](O)[C@H]3C[C@@H]12 [DEMECLOCYCLINE] | 5.73 | 3.12 (≈ 1.45 µg/mL) | 5.23 | 6.25 (≈ 2.91 µg/mL) | 5.36 | 6.25 (≈ 2.91 µg/mL) | 5.73 | 3.12 (≈ 1.45 µg/mL) | 5.23 | 6.25 (≈ 2.91 µg/mL) | 5.36 | 6.25 (≈ 2.91 µg/mL) |  |
| c1cnc2c(c1)ccc1cccnc12 [PHENANTHROLINE] | 4.38 | 50 (≈ 9.01 µg/mL) | 5.30 | 12.5 (≈ 2.25 µg/mL) | 5.24 | 12.5 (≈ 2.25 µg/mL) | 4.38 | 50 (≈ 9.01 µg/mL) | 5.30 | 12.5 (≈ 2.25 µg/mL) | 5.24 | 12.5 (≈ 2.25 µg/mL) |  |
| O=C1c2c(O)ccc(O)c2C(=O)c2c(NCCNCCO)ccc(NCCNCCO)c21 [MITOXANTRONE] | 4.66 | 50 (≈ 22.2 µg/mL) | 5.01 | 50 (≈ 22.2 µg/mL) | 5.30 | 50 (≈ 22.2 µg/mL) | 4.66 | 50 (≈ 22.2 µg/mL) | 5.01 | 50 (≈ 22.2 µg/mL) | 5.30 | 50 (≈ 22.2 µg/mL) |  |
| CC(=O)[C@]1(O)Cc2c(O)c3c(c(O)c2[C@@H](O[C@H]2C[C@H](N)[C@H](O)[C@H](C)O2)C1)C(=O)c1ccccc1C3=O [IDARUBICIN] | 5.44 | 12.5 (≈ 6.22 µg/mL) | 5.18 | 25 (≈ 12.4 µg/mL) | 5.29 | 12.5 (≈ 6.22 µg/mL) | 5.44 | 12.5 (≈ 6.22 µg/mL) | 5.18 | 25 (≈ 12.4 µg/mL) | 5.29 | 12.5 (≈ 6.22 µg/mL) |  |
| CC(C)(C)c1ccc(S(=O)(=O)/C=C/C#N)cc1 [BAY-11-7085] | 4.51 | 50 (≈ 12.5 µg/mL) | 5.59 | 6.25 (≈ 1.56 µg/mL) | 5.21 | 12.5 (≈ 3.12 µg/mL) | 4.51 | 50 (≈ 12.5 µg/mL) | 5.59 | 6.25 (≈ 1.56 µg/mL) | 5.21 | 12.5 (≈ 3.12 µg/mL) |  |
| Cc1c(C)c2c(c(C)c1O)CCC(C)(CN1CCN(c3cc(N4CCCC4)nc(N4CCCC4)n3)CC1)O2 (single isomer, unassigned) | < 4.30 | 50 (≈ 26 µg/mL) | < 4.30 | 50 (≈ 26 µg/mL) | 4.47 | 50 (≈ 26 µg/mL) | < 4.30 | 50 (≈ 26 µg/mL) | < 4.30 | 50 (≈ 26 µg/mL) | 4.47 | 50 (≈ 26 µg/mL) |  |
| 4-CHLOROMERCURIBENZOIC ACID |  |  |  |  |  |  |  |  |  |  |  |  | pIC50 [1]: 5.15; pIC50 [2]: 5.12; pIC50 [3]: 5.20; pIC50 [4]: 5.15; pIC50 [5]: 5.12; pIC50 [6]: 5.20 |
| CCn1cc(C(=O)O)c(=O)c2cc(F)c(N3CCNC(C)C3)c(F)c21 (stereo unspecified) [LOMEFLOXACIN] | 5.36 | 12.5 (≈ 4.39 µg/mL) | 5.31 | 6.25 (≈ 2.2 µg/mL) | 5.84 | 6.25 (≈ 2.2 µg/mL) | 5.36 | 12.5 (≈ 4.39 µg/mL) | 5.31 | 6.25 (≈ 2.2 µg/mL) | 5.84 | 6.25 (≈ 2.2 µg/mL) |  |
| N=C(N)c1ccc(OCCCCCOc2ccc(C(=N)N)cc2)cc1 [PENTAMIDINE] | 4.63 | 50 (≈ 17 µg/mL) | 4.96 | 25 (≈ 8.51 µg/mL) | 5.04 | 50 (≈ 17 µg/mL) | 4.63 | 50 (≈ 17 µg/mL) | 4.96 | 25 (≈ 8.51 µg/mL) | 5.04 | 50 (≈ 17 µg/mL) |  |
| CN1CCN(CCCN2c3ccccc3Sc3ccc(C(F)(F)F)cc32)CC1 [TRIFLUOPERAZINE] | 4.91 | 50 (≈ 20.4 µg/mL) | 4.91 | 50 (≈ 20.4 µg/mL) | 5.50 | 50 (≈ 20.4 µg/mL) | 4.91 | 50 (≈ 20.4 µg/mL) | 4.91 | 50 (≈ 20.4 µg/mL) | 5.50 | 50 (≈ 20.4 µg/mL) |  |
| O=C(Nc1ccc([N+](=O)[O-])cc1Cl)c1cc(Cl)ccc1O [NICLOSAMIDE] | 5.16 | 12.5 (≈ 4.09 µg/mL) | 5.48 | 6.25 (≈ 2.04 µg/mL) | 5.33 | 6.25 (≈ 2.04 µg/mL) | 5.16 | 12.5 (≈ 4.09 µg/mL) | 5.48 | 6.25 (≈ 2.04 µg/mL) | 5.33 | 6.25 (≈ 2.04 µg/mL) |  |
